Earlier results in patent US4503068A, “Use of prostaglandin analogues to treat cytodamage” (priority 1982, dated 1985).

Assays:
[1] = system: endotoxin-induced lung injury; conditions: sheep; cited from earlier work
endotoxin shock = conditions: dog; cited from earlier work
[2] = system: isolate perfused cat liver; conditions: cited from earlier work
[3] = system: ischemic myocardial tissue; conditions: cat; cited from earlier work

CCCCC[C@H](O)/C=C/[C@@H]1[C@H]2C/C(=C/CCCC(=O)O)O[C@H]2C[C@H]1O [PGI2, (5Z,13E)-(9α,11α,15S)-6,9-epoxy-11,15-dihydroxyprosta-5,13-dienoic acid]
prevents and is useful in treating: effect on endotoxin-induced lung injury [1] | effect on endotoxin shock (endotoxin shock) | effect on hypoxia in the isolate perfused cat liver [2] | effect on ischemic myocardial tissue [3]
